The source of these data is patent US8415293B2, “Peptide mediators of cholesterol efflux” (The Regents of the University of California, priority 2008, dated 2013).

For data set [1] the following is noted: Scaled = (Raw + 2.061)/4.484; Black and Mould 1991; cited from earlier work.
In data set [2] the target is T1, ABCA1 (Mus musculus, UniProt P41233).
T1 construct: cell lines in which cholesterol efflux can be enhanced using a cAMP analog that up-regulates ABCA1 protein expression (e.g., J774 macrophages); endogenous in cells; host or cells: J774 macrophages
The experiment in a line: Cholesterol efflux activity of peptides after exposure to acrolein (MPO-derived oxidation product), J774 macrophages + cAMP. The format is cell-based. As to conditions: acrolein:peptide mole ratio 25:1, 18 h, 37° C.; efflux at 2 μg/ml. The method, then: Peptides corresponding to SEQ ID NO:2 and SEQ ID NO:12 were exposed to acrolein (acrolein:peptide mole ratio=25:1) for 18 h at 37° C. Control peptides were similarly incubated in the absence of acrolein. Control and acrolein-treated peptides were then dialyzed and used for cholesterol efflux experiments. […] J774 macrophages treated with cAMP, which up-regulates ABCA1, were used in both panels. Cholesterol efflux assays were conducted using peptides at 2 μg/ml serum free-medium.

The target of data set [3] is T1, ABCA1. The data set can be described thus: Cholesterol efflux from [3H]cholesterol-labeled J774 macrophages ± cAMP (upregulates ABCA1). To be noted: concentration dependence. The format is cell-based.
In data set [4] the target is T1, ABCA1. The description is as above. The format is cell-based. As to conditions: for % cholesterol efflux (8 hours): J774 macrophages; for cholesterol efflux from cells induced for the ABCA1 response (in words): lipid-free peptide 30 μg/ml, 8 h, +cAMP compared to no cAMP. An excerpt:
Suitable cholesterol efflux assays are described in, […] and Oda, M. N., Biochemistry, 41:2089-2096 (2002); Jia et al., Biochem. Biophys. Res. Common., 297:206-213 (2002). In some embodiments, a polypeptide known to mediate cholesterol efflux (e.g., helix 9/10 of Apo A-I) is used to screen for additional mediators of cholesterol efflux in a cell based assay. For example, cell lines in which cholesterol efflux can be enhanced using a cAMP analog that up-regulates ABCA1 protein expression (e.g., J774 macrophages) can conveniently be used to assess the ability of a polypeptide of the present invention to mediate cholesterol efflux. The cells are incubated with labeled cholesterol (e.g., [^3H]cholesterol) under conditions appropriate for cholesterol uptake by the cells. Thus, cAMP or cAMP analogs (e.g., CPT-cAMP) are incubated with the cells for a suitable time before the initiation of cellular cholesterol efflux, i.e., prior to contacting the cells with a test polypeptide. Measurement of labeled cholesterol appearing in the medium is used to determine the cholesterol efflux mediating activity of the test polypeptide. […] J774 cells plated on 24-well culture plates were labeled (48 h) with 1 μCi/ml of [^3H]cholesterol in 1% FBS. A cAMP analog was added (0.3 mM) to some wells (12-18 h) to up-regulate ABCA1 expression. Following cAMP treatment, cells were rinsed, and then exposed to peptide in serum-free medium. Panel A provides data showing the dependence of cholesterol efflux on concentration (lipid-free SEQ ID NO:2 peptide (squares) and lipid-free apolipoprotein(apo)A-I (circles)); cAMP-treated cells were used. The percentage of cellular [^3H]cholesterol that appeared in the medium at 8 h is shown, subtracting background efflux to serum-free medium alone. Values are means±SD; apoA-I, n=8; SEQ ID NO:2 peptide, n=3. Km values reflecting efficiency for cholesterol efflux stimulation were calculated (Prism 4 software) from concentration-dependence curves using the Michaelis-Menton equation and 4 h efflux data.

For data set [5], the system named is HDL subpopulations in human plasma. The experiment in a line: preβ-1 HDL formation in human plasma (2D gel electrophoresis, apoA-I Western blot). To be noted: peptide 30 μg/ml (peptide:apoA-I mole ratio ~1:5), 5 minutes, 37° C. The format is biochemical. The method, then: Peptide of the invention may also be screened for the ability to induce preβ-1 HDL formation in human plasma. In one example of such an analysis, a peptide to be tested is added to human plasma. Plasma with and without peptide are incubated and then evaluated, e.g., by agarose gel electrophoresis in the first dimension followed by native gradient gel electrophoresis in the second dimension to evaluate the population of HDL particles present in the human plasma samples.
Peptides corresponding to SEQ ID NO:2 were added to human plasma at a final concentration of 30 μg/ml (i.e. peptide:apoA-I mole ratio ˜1:5). Plasma with and without peptide were subsequently incubated for 5 minutes at 37° C. Following incubations, samples of plasma were subjected to agarose gel electrophoresis in the first dimension followed by native gradient gel electrophoresis in the second dimension. Proteins on resulting gels were transferred to nitrocellulose and analyzed by Western-blot analysis using an apoA-I antibody. The distribution of HDL subpopulations in plasma treated with vehicle alone (open bars), SEQ ID NO:2 peptide composed of all D-amino acids (intermediate shade), and SEQ ID NO:2 peptide composed of all L-amino acids (darkly shaded) is shown. […] Reductions of α-HDL subpopulations indicate that peptides specifically interact with distinct HDL species to generate preβ-1 apoA-I particles.
Background: Immunoblotting shows a protein as a band on a membrane.

Square brackets hold non-standard residues; d marks the D form. Ends that are not written are not given here.

T1 sequence (P41233 whole entry): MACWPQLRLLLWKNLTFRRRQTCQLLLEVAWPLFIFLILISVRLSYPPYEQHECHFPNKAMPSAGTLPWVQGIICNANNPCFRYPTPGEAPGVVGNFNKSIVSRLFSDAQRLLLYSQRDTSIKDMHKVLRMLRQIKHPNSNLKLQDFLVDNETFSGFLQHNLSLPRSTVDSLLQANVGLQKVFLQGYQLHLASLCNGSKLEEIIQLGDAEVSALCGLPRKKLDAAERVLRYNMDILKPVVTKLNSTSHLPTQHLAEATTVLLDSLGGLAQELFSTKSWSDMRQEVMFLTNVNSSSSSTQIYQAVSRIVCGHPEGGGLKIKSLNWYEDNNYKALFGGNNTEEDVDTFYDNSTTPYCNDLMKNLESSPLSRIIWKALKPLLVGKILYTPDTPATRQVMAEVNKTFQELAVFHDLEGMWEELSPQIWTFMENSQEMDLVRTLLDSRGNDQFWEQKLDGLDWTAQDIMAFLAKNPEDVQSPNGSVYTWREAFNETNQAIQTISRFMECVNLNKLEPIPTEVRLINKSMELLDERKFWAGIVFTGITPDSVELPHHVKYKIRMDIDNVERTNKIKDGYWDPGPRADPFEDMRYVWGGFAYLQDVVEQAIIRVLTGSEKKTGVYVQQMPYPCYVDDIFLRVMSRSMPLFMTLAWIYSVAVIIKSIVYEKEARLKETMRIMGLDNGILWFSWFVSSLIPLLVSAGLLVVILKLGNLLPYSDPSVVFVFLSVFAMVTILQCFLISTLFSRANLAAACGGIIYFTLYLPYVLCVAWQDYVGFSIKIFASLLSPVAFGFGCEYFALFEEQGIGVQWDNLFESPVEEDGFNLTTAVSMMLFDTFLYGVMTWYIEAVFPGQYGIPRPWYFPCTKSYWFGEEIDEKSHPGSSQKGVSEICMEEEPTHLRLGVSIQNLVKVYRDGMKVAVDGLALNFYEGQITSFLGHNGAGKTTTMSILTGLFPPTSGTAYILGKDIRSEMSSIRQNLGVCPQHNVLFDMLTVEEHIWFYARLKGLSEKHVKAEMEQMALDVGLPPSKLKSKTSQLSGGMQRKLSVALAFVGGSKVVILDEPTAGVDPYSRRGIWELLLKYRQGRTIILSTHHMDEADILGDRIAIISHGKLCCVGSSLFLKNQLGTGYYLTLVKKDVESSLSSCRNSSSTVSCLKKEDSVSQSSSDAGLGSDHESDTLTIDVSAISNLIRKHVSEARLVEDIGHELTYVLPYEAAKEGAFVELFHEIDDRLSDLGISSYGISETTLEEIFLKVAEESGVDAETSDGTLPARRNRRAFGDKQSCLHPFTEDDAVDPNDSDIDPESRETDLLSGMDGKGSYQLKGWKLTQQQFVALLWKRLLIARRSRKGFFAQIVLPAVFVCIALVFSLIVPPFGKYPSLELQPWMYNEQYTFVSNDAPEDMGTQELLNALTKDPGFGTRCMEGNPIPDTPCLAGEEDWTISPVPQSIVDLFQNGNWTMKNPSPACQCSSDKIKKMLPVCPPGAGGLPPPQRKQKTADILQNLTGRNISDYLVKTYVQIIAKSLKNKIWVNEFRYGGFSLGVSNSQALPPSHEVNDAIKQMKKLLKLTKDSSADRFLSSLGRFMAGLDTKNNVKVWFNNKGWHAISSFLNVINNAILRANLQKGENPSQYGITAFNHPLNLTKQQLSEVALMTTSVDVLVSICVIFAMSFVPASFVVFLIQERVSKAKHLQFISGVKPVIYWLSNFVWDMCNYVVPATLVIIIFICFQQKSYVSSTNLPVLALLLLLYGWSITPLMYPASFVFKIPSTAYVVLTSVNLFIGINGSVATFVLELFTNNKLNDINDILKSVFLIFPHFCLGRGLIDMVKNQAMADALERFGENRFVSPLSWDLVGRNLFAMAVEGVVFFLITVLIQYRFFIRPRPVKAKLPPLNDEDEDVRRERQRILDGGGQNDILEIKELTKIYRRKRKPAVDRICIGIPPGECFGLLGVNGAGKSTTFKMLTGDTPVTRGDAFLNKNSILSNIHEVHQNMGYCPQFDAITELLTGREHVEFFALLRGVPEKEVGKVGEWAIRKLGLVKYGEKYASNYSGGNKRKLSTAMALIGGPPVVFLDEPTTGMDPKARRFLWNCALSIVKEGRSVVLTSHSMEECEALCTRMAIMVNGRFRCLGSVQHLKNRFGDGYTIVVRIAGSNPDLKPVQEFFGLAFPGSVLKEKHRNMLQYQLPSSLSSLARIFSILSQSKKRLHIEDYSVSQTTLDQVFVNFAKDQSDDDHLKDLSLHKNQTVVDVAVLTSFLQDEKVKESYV

Regarding `C[C@H](N)C(=O)O` [Alanine], in data set [1], the “Hydrophobicity (scaled computational log(P))” value is recorded as 0.616. As for `N=C(N)NCCC[C@H](N)C(=O)O` [Arginine], the “Hydrophobicity (scaled computational log(P))” value in data set [1] is 0.000. In the case of `NC(=O)C[C@H](N)C(=O)O` [Asparagine], the “Hydrophobicity (scaled computational log(P))” value in data set [1] was 0.236. As to `N[C@@H](CCC(=O)O)C(=O)O` [Glutamate], the “Hydrophobicity (scaled computational log(P))” value in data set [1] was 0.043. Consider `NCC(=O)O` [Glycine], for which the “Hydrophobicity (scaled computational log(P))” value in data set [1] is listed as 0.501. On to `N[C@@H](Cc1c[nH]cn1)C(=O)O` [Histidine], for which the “Hydrophobicity (scaled computational log(P))” value in data set [1] is listed as 0.165. Take `CC[C@H](C)[C@H](N)C(=O)O` [Isoleucine]: the “Hydrophobicity (scaled computational log(P))” value in data set [1] is on record as 0.943. Consider `NCCCC[C@H](N)C(=O)O` [Lysine], for which, in data set [1], the “Hydrophobicity (scaled computational log(P))” value is 0.283.

`CSCC[C@H](N)C(=O)O` [Methionine]: in data set [1], the “Hydrophobicity (scaled computational log(P))” value is 0.738. Consider `N[C@@H](Cc1ccccc1)C(=O)O` [Phenylalanine], for which, in data set [1], the “Hydrophobicity (scaled computational log(P))” value is 1.00.

In the case of `O=C(O)[C@@H]1CCCN1` [Proline], the “Hydrophobicity (scaled computational log(P))” value in data set [1] is 0.711. For `C[C@@H](O)[C@H](N)C(=O)O` [Threonine], in data set [1], the “Hydrophobicity (scaled computational log(P))” value is given as 0.450. For `N[C@@H](Cc1c[nH]c2ccccc12)C(=O)O` [Tryptophan], the “Hydrophobicity (scaled computational log(P))” value in data set [1] is 0.878. Consider `N[C@@H](Cc1ccc(O)cc1)C(=O)O` [Tyrosine], for which, in data set [1], the “Hydrophobicity (scaled computational log(P))” value was 0.880. Consider `CC(C)[C@H](N)C(=O)O` [Valine], for which the “Hydrophobicity (scaled computational log(P))” value in data set [1] is 0.825.

Turning to ELRDRLEAWLDLLRELLERL [N1154-10], the “effect of acrolein on cholesterol efflux activity” value at ABCA1 [2] is listed as “modest effects of acrolein”. The “% cholesterol efflux/4 hours” value on ABCA1 [3] (peptide 0.1 μg/ml) came out at 0.58%; at ABCA1 [3] (peptide 0.3 μg/ml) it was 1.00%; on ABCA1 [3] (peptide 1.0 μg/ml), 2.12%; on ABCA1 [3] (peptide 3.0 μg/ml), 5.25%; on ABCA1 [3] (peptide 10 μg/ml) it was 4.15%; on ABCA1 [3] (peptide 30 μg/ml), 3.70%. Besides, the entries for the “% cholesterol efflux (8 hours)” value at ABCA1 [4] (+ cAMP (ABCA1 upregulated)) and on ABCA1 [4] (no cAMP) were 8.25 ± 0.33% and 2.66 ± 0.41%, respectively. For “ELREKLEAFFELFREFLERF (synthetic amphipathic alpha-helix peptide ligand for ATP-binding cassette transporter A1 (ABCA1) having cholesterol efflux activity) [SEQ ID NO:33]”, in the data set with ABCA1 [4], the “cholesterol efflux from cells induced for the ABCA1 response (in words)” value is on record as “relatively high-levels of cholesterol efflux”. Still for that read-out and setting: next, “ELREKLEALFELFREFLERF (synthetic amphipathic alpha-helix peptide ligand for ATP-binding cassette transporter A1 (ABCA1) having cholesterol efflux activity) [SEQ ID NO:32]”: “relatively high-levels of cholesterol efflux”.

Consider “ELREKLEAWFELFAEFFARF (synthetic amphipathic alpha-helix peptide N356-6 ligand for ATP-binding cassette transporter A1 (ABCA1) having cholesterol efflux activity)”, for which the “concentration giving max. efflux” value with ABCA1 [4] (concentration dependence, cAMP treated cells) amounted to 3 µg/mL.

Turning to “ELREKLEAWFELFREFLERF ([dE][dL][dR][dE][dK][dL][dE][dA][dW][dF][dE][dL][dF][dR][dE][dF][dL][dE][dR][dF])”, in data set [5], the “change in HDL subpopulations in human plasma” value is “preferential increase in preβ-1 HDL”.

In the case of ELREKLEAWFELFREFLERF [N965-8], the “effect of acrolein on cholesterol efflux activity” value at ABCA1 [2] is “Acrolein greatly decreased the activity”. Moreover, the “% cholesterol efflux/4 hours” value was determined as 0.15% at ABCA1 [3] (peptide 0.1 μg/ml); 0.52% on ABCA1 [3] (peptide 0.3 μg/ml); 1.72% at ABCA1 [3] (peptide 1.0 μg/ml); 4.60% at ABCA1 [3] (peptide 3.0 μg/ml); 3.62% at ABCA1 [3] (peptide 10 μg/ml); 3.66% on ABCA1 [3] (peptide 30 μg/ml). Further, the results for the “% cholesterol efflux (8 hours)” value at ABCA1 [4] (+ cAMP (ABCA1 upregulated)) and on ABCA1 [4] (no cAMP) were 5.26 ± 0.95% and 2.29 ± 0.16%, respectively. Turning to “ELREKLEAWFELFREFLERFKS (synthetic amphipathic alpha-helix peptide ligand for ATP-binding cassette transporter A1 (ABCA1) having cholesterol efflux activity) [SEQ ID NO:31]”, the “stimulation of ABCA1 cholesterol efflux (in words)” value with ABCA1 [4] (lipid-free peptide, J774 macrophages ± cAMP) is given as “stimulates ABCA1 cholesterol efflux, similar to 20-mer SEQ ID NO:2 peptide”. Consider ELREKLEAWREAFEEFFARFKS [N257-11], for which the “% cholesterol efflux (8 hours)” value on ABCA1 [4] (+ cAMP (ABCA1 upregulated)) was found to be 6.99 ± 1.4%; on ABCA1 [4] (no cAMP), 0.91 ± 0.1%. For orientation: Km means the concentration of substrate that gives half-maximal velocity. Take “apoA-I: full-length apolipoprotein A-I, polypeptide comprising 243 amino acids, used lipid-free as comparator [reference compound]”: the Km with ABCA1 [4] (lipid-free, cAMP-treated cells, 4 h efflux data, read-out: Km for cholesterol efflux stimulation, molar basis) was 0.12 ± 0.02 µM. Besides, the “Km for cholesterol efflux stimulation, mass basis” value with ABCA1 [4] (lipid-free, cAMP-treated cells, Michaelis-Menton fit of 4 h efflux data) was 3.4 ± 0.6 µg/mL.
